Data as given in patent publication US10875895B2, “Antibacterial cell-penetrating peptides” (Purdue Research Foundation, priority 2018, dated 2020).
Where two headings read alike, the source gives them in different places. Non-standard residues stand in square brackets, D forms with d. Residues, ends and D or L forms follow the SMILES beside them. *: point of attachment. X1 = O=C(O)c1cc(C(=O)*)ccc1-c1c2ccc(=O)cc-2oc2cc(O)ccc12; Propyl(3-guanidino) = N=C(N)NCCC*; Hyp = O=C(O)[C@@H]1C[C@@H](O)CN1; Isobutyl = CC(C)C*

Experiments:
E. faecium 700221 [1] = conditions: 700221
S. aureus NRS 384 [2] = conditions: NRS 384
K. pneumoniae 1706 [3] = conditions: 1706
K. pneumonia NR 41920 [4] = system: K. pneumonia NR 41920
K. pneumonia NR 41928 [5] = system: K. pneumonia NR 41928
A. baumannii 1605 [6] = conditions: 1605
P. aeruginosa 50573 [7] = conditions: 50573
E. cloacae 1134 [8] = conditions: 1134
S. aureus NRS 383 [9] = conditions: NRS 383
S. aureus NRS 382 [10] = conditions: NRS 382
S. aureus ATCC 6538 [11] = conditions: ATCC 6538
S. epidermidis NRS 101 [12] = conditions: NRS 101
P. aeruginosa 48982 [13] = conditions: 48982
P. aeruginosa 31040 [14] = conditions: 31040
P. aeruginosa 31041 [15] = conditions: 31041
A. baumannii 1747 [16] = conditions: 1747
A baumannii 19606 [17] = conditions: 19606
L. monocytogenes 191112 [18] = conditions: 191112
S. enteritidis [19] = system: S. enteritidis
E. coli 21922 [20] = conditions: 21922
S. typhimurium LT2 [21] = conditions: LT2
S. aureus RN 4220 = assay: MIC, broth microdilution (CLSI); assay type: cell-based; conditions: Staphylococcus aureus, RN4220
Experimental: (§1) The minimum inhibitory concentration (MIC) of the peptides (in uM/ml) and control antibiotics (vancomycin and gentamicin) in μg/mL, were determined using the broth microdilution method according to the guidelines of the Clinical and Laboratory Standards Institute (CLSI) guidelines. See CLSI. 2007. Methods for dilution antimicrobial susceptibility tests for bacteria that grow aerobically; approved standard M7-A7. CLSI, Wayne, Pa.

S. flexneri 1a = assay: MIC, broth microdilution (CLSI); assay type: cell-based; conditions: Shigella flexneri, enteric pathogens
Experimental: as §1

E. faecium 700221 [22] = assay: microbe, parasite or virus in culture; conditions: Enterococcus faecium
S. aureus NRS 384 [23] = assay: microbe, parasite or virus in culture; conditions: Staphylococcus aureus, NRS384
K. pneumoniae 1706 [24] = assay: microbe, parasite or virus in culture; conditions: Klebsiella pneumoniae
K. pneumonia NR 41920 [25] = assay: microbe, parasite or virus in culture; conditions: Klebsiella pneumoniae, NR41920
K. pneumonia NR 41928 [26] = assay: microbe, parasite or virus in culture; conditions: Klebsiella pneumoniae, NR41928
A. baumannii 1605 [27] = assay: microbe, parasite or virus in culture; conditions: Acinetobacter baumannii
P. aeruginosa 50573 [28] = assay: microbe, parasite or virus in culture; conditions: Pseudomonas aeruginosa
E. cloacae 1134 [29] = assay: microbe, parasite or virus in culture; conditions: Enterobacter cloacae
S. aureus NRS 383 [30] = assay: microbe, parasite or virus in culture; conditions: Staphylococcus aureus, NRS383
S. aureus NRS 382 [31] = assay: microbe, parasite or virus in culture; conditions: Staphylococcus aureus, NRS382
S. aureus ATCC 6538 [32] = assay: microbe, parasite or virus in culture; conditions: Staphylococcus aureus, ATCC6538
S. epidermidis NRS 101 [33] = assay: microbe, parasite or virus in culture; conditions: Staphylococcus epidermidis, NRS101
VRSA 5 = assay: microbe, parasite or virus in culture; conditions: Staphylococcus aureus
VRSA 10 = assay: microbe, parasite or virus in culture; conditions: Staphylococcus aureus
P. aeruginosa 48982 [34] = assay: microbe, parasite or virus in culture; conditions: Pseudomonas aeruginosa
P. aeruginosa 31040 [35] = assay: microbe, parasite or virus in culture; conditions: Pseudomonas aeruginosa
P. aeruginosa 31041 [36] = assay: microbe, parasite or virus in culture; conditions: Pseudomonas aeruginosa
A. baumannii 1747 [37] = assay: microbe, parasite or virus in culture; conditions: Acinetobacter baumannii
A baumannii 19606 [38] = assay: microbe, parasite or virus in culture; conditions: Acinetobacter baumannii
L. monocytogenes 191112 [39] = assay: microbe, parasite or virus in culture; conditions: Listeria monocytogenes
S. enteritidis [40] = assay: microbe, parasite or virus in culture; conditions: Salmonella enterica
E. coli 21922 [41] = assay: microbe, parasite or virus in culture; conditions: Escherichia coli
S. typhimurium LT2 [42] = assay: microbe, parasite or virus in culture; conditions: Salmonella enterica

Measured: MIC

CC(C)CO[C@@H]1C[C@@H](C(=O)N2C[C@H](OCCCNC(=N)N)C[C@H]2C(=O)N2C[C@H](OCCCNC(=N)N)C[C@H]2C(=O)N2C[C@H](OCC(C)C)C[C@H]2C(=O)N2C[C@H](OCCCNC(=N)N)C[C@H]2C(=O)N2C[C@H](OCCCNC(=N)N)C[C@H]2C(=O)N2C[C@H](OCC(C)C)C[C@H]2C(=O)N2C[C@H](OCCCNC(=N)N)C[C@H]2C(=O)N2C[C@H](OCCCNC(=N)N)C[C@H]2C(=O)N2C[C@H](OCC(C)C)C[C@H]2C(=O)N2C[C@H](OCCCNC(=N)N)C[C@H]2C(=O)N2C[C@H](OCCCNC(=N)N)C[C@H]2C(=O)N2C[C@H](OCC(C)C)C[C@H]2C(N)=O)N(C(=O)CNC(=O)c2ccc(-c3c4ccc(=O)cc-4oc4cc(O)ccc34)c(C(=O)O)c2)C1 [Example P14-LRR] (X1-G[Hyp](Isobutyl)[Hyp](Propyl(3-guanidino))[Hyp](Propyl(3-guanidino))[Hyp](Isobutyl)[Hyp](Propyl(3-guanidino))[Hyp](Propyl(3-guanidino))[Hyp](Isobutyl)[Hyp](Propyl(3-guanidino))[Hyp](Propyl(3-guanidino))[Hyp](Isobutyl)[Hyp](Propyl(3-guanidino))[Hyp](Propyl(3-guanidino))[Hyp](Isobutyl)-NH2; N-terminus and C-terminus assumed)
2 µM: E. faecium 700221 [1] | S. epidermidis NRS 101 [12] | A baumannii 19606 [17]
1 µM: A. baumannii 1605 [6] | A. baumannii 1747 [16]
>32 µM: K. pneumoniae 1706 [3] | K. pneumonia NR 41928 [5]
32 µM: K. pneumonia NR 41920 [4] | E. cloacae 1134 [8] | S. aureus NRS 383 [9] | S. aureus NRS 382 [10] | P. aeruginosa 48982 [13] | P. aeruginosa 31040 [14] | P. aeruginosa 31041 [15]
8 µM: L. monocytogenes 191112 [18]
4 µM: S. enteritidis [19] | E. coli 21922 [20]
16 µM: S. aureus NRS 384 [2] | P. aeruginosa 50573 [7] | S. aureus ATCC 6538 [11] | S. typhimurium LT2 [21]

CN[C@H](CC(C)C)C(=O)N[C@H]1C(=O)N[C@@H](CC(N)=O)C(=O)N[C@H]2C(=O)N[C@H]3C(=O)N[C@H](C(=O)N[C@H](C(=O)O)c4cc(O)cc(O)c4-c4cc3ccc4O)[C@H](O)c3ccc(c(Cl)c3)Oc3cc2cc(c3O[C@@H]2O[C@H](CO)[C@@H](O)[C@H](O)[C@H]2O[C@H]2C[C@](C)(N)[C@H](O)[C@H](C)O2)Oc2ccc(cc2Cl)[C@H]1O [Vancomycin, vancomycin]
2 µM: S. epidermidis NRS 101 [33]
32 µM: A baumannii 19606 [38]
8 µM: A. baumannii 1605 [27]
0.5 µM: S. aureus RN 4220 | S. aureus NRS 384 [23] | S. aureus ATCC 6538 [32]
4 µM: S. aureus NRS 383 [30] | VRSA 5
1 µM: S. aureus NRS 382 [31] | L. monocytogenes 191112 [39]
> 32 µM: S. flexneri 1a | E. faecium 700221 [22] | K. pneumoniae 1706 [24] | K. pneumonia NR 41920 [25] | K. pneumonia NR 41928 [26] | P. aeruginosa 50573 [28] | E. cloacae 1134 [29] | VRSA 10 | P. aeruginosa 48982 [34] | P. aeruginosa 31040 [35] | P. aeruginosa 31041 [36] | A. baumannii 1747 [37] | S. enteritidis [40] | E. coli 21922 [41] | S. typhimurium LT2 [42]
